Results reported in patent US20260256753A1, “USE OF AN OREXIN 2 RECEPTOR AGONIST FOR IMPROVING RESPIRATORY FUNCTION DURING SLEEP” (TAKEDA PHARMACEUTICAL COMPANY LIMITED, priority 2023, published 2026).

Experiments:
genioglossus muscle = test: EMG recording of the genioglossus muscle in anesthetized rats; type: in vivo, rat; settings: 1 mg/kg intravenous, 10 min after administration, versus vehicle, FIG. 5
Method: EMG recording of the genioglossus muscle was conducted as described previously (G. H. Zhang, et al.) with slight modifications. Rats were anaesthetized with urethane (2.0 g/kg, intraperitoneal injection). Anesthetic depth was assessed by the reflex responses to paw pinches. The tail vein was cannulated for intravenous drug administration. Each rat was laid on a servo-controlled electric heating pad. The body temperature of the rat was monitored with a rectal probe of the pad and kept at around 37° C. […] After 10 min of baseline recording, vehicle (0.1% [w/v] Polysorbate 80 and 20% [w/v] Captisol solution) or Compound C was administered intravenously and then EMG was recorded for 10 min. EMG was amplified 1,000-fold, band-pass filtered (100-5,000 Hz) using Microelectrode AC Amplifier (Model 1800; A-M systems, Carlsborg, WA, USA), digitized using AD converter (Power 1401; Cambridge Electronic Design, Cambridge, UK), recorded using Spike2 software (Cambridge Electronic Design), and then rectified and integrated with a time constant decay (100 ms) using LabChart software (AD Instruments). […] Bursts were then automatically detected, and burst amplitude was measured. […]

diaphragm = test: EMG recording of the diaphragm in anesthetized rats; type: in vivo, rat; settings: 10 min after administration, versus vehicle, FIG. 4
Method: Rats were anaesthetized with isoflurane (induction: 2%, maintenance: 1.5%). Anesthetic depth was assessed by the reflex responses to paw pinches. The tail vein was cannulated for intravenous drug administration. Rats were laid on disposable body warmers to prevent decrease in body temperature. The diaphragm was exposed, then two needle electrodes were implanted into costal diaphragm to monitor diaphragm EMG. After 10 min of baseline recording, vehicle (0.1% [w/v] Polysorbate 80 and 20% [w/v] Captisol solution) or Compound C was administered intravenously, and then EMG was recorded for 10 min. EMG was amplified using Bio amp system (ML132, AD Instruments), high-pass filtered (10 Hz), digitized, and recorded using PowerLab software (AD Instruments), and then rectified and integrated with a time constant decay (100 ms) using LabChart software (AD Instruments). Threshold levels for bursts were set using LabChart software (AD Instruments). Bursts were then automatically detected, and burst frequency was measured. Mean values in burst frequency during 2 min before vehicle or Compound C administration were used as control values, and those during 10 min after vehicle or Compound C administration were used to calculate percent of control values.

OX2R = molecular target: T1, OX2R (Homo sapiens, UniProt O43614); settings: OX2R-expressed recombinant cells; cited from earlier work
T1 sequence (O43614 1-444): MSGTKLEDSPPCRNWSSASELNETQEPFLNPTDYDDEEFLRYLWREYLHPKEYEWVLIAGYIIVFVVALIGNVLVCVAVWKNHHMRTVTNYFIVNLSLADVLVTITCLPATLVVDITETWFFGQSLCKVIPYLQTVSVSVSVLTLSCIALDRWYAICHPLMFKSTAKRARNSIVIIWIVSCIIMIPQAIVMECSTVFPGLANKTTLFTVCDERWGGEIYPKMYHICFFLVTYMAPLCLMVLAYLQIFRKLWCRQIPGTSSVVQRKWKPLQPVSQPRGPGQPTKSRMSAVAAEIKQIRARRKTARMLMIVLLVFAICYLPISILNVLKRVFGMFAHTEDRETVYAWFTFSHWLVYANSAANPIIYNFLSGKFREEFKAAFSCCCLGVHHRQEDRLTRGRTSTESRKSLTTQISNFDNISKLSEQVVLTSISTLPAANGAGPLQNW

Row | Structure (SMILES) | burst amplitude of the genioglossus muscle (genioglossus muscle) | burst frequency of the diaphragm (diaphragm; 1 mg/kg intravenous) | burst frequency of the diaphragm (diaphragm; 3 mg/kg intravenous) | calcium mobilization (OX2R)
1 | CC(C)(O)C(=O)N1CC(F)(F)[C@H](NS(C)(=O)=O)[C@@H]1Cc1cccc(-c2cc(F)cc(F)c2)c1F [Compound C, N-{(2S,3R)-4,4-difluoro-1-(2-hydroxy-2-methylpropanoyl)-2-[(2,3′,5′-trifluoro[1,1′-biphenyl]-3-yl)methyl]pyrrolidin-3-yl}methanesulfonamide] | significantly increased burst amplitude | significantly increased burst frequency | significantly increased burst frequency | 
2 | COC(=O)N1CCC[C@H](NS(C)(=O)=O)[C@@H]1CO[C@H]1CC[C@@H](c2ccccc2)CC1 (relative stereo) [Compound A, methyl(2R,3S)-3-((methylsulfonyl)amino)-2-(((cis-4-phenylcyclohexyl)oxy)methyl) piperidine-1-carboxylate] |  |  |  | increase calcium mobilization
